Assays:
[1] = PAN-injury podocyte viability assay (Cell Titer-Glo); type: cell-based, human; details: human, no test compound, read-out: podocyte viability compared with untreated cells
From the text: (§1) Cell Culture. The human podocyte cell line (CIHP-1) is a […] isolated from human kidney. Podocytes are highly specialized, terminally differentiated cells with a complex cellular structure. They are a critical component of glomerular filtration. Cell cycle control, growth arrest and differentiation are key to the in vivo biology of podocytes. The conditionally immortalized podocyte cell line allows an in vitro process of maturation analogous to the development and maturation of podocytes in vivo. […] These include the novel podocyte proteins nephrin, podocin, CD2AP and synaptopodin. This robust cell line is extensively characterized and validated.
(§2) The growth medium of CIHP-1 cells (Ximbio) was RPMI 1640 with 10% fetal bovine serum (FBS), 1-fold of ITS (insulin-transferrin-selenium), and 1-fold Pen/Strep. The culture condition was 33° C. with 5% CO2. The cell detachment solution was Accutase® for 5 min at 33° C. The cell line passage ration was 1:3 every 3 or 4 days.
(§3) PAN-injury podocyte viability assay. Differentiated podocytes were either pretreated with dimethyl sulfoxide (DMSO) as vehicle, lobeglitazone, pioglitazone, rosiglitazone, or dexamethasone followed by puromycin aminonucleoside (PAN) treatment (5 μg/ml). Viability assays were performed after 3 or 5 days of treatments. […] For compound treatment, compounds were diluted to 20, 2, 0.2, 0.02 and 0.002 mM with DMSO. A volume of 1.8 μL of compounds was taken to 358.2 μL of culture medium and mixed. Media from plates were aspirated. A volume of 100 μL compound-added medium was added to each plate. Plates were placed in the incubator for 4 hours.
(§4) On day 0, CIHP-1 cells were seeded into two 96-well white plates using 5000 cell/well for 3 days (plate 1) or 2500 cell/well for 5 days (plate 2) treatment.
(§5) For compound treatment on Day 1, culture medium was aspirated. For each cell plate, 100 μl/well fresh medium with compounds was added for 4 hour. DMSO was used as control. After compound treatment for 4 hours, PAN was added to a final concentration of 5 μg/ml. No PAN treatment was used for the negative control. There was no medium change for the whole process.
(§6) On Day 4, for the first plate, Cell Titer-Glo (CTG) assay was used by adding 60 μl of CTG reagent into each well of the first plate, incubating at room temperature with shaking for 20 min, and then reading by the EnVision plate reader.
(§7) On Day 6, for the second plate, CTG assay was used by adding 60 μl of CTG reagent into each well of the second plate, incubating at RT with shaking for 20 min, and then reading by the EnVision plate reader.

[2] = test system: human podocyte cell line (CIHP-1); assay: as above; type: cell-based; details: for CIHP-1 proliferation by CTG, percentage compared to DMSO control (without PAN): 4 h pretreatment
From the text: as §1, §2, §3, §4, §5, §6, §7

[3] = compound 0.1 μM, PAN 5 μg/ml 3-day treatment
[4] = compound 0.1 μM, PAN 5 μg/ml 5-day treatment
[5] = compound 1 μM, PAN 5 μg/ml 3-day treatment
[6] = compound 1 μM, PAN 5 μg/ml 5-day treatment
[7] = compound 10 μM, PAN 5 μg/ml 3-day treatment
[8] = compound 10 μM, PAN 5 μg/ml 5-day treatment
[9] = compound 0.01 μM, PAN 5 μg/ml 3-day treatment
[10] = compound 0.01 μM, PAN 5 μg/ml 5-day treatment
[11] = compound 100 μM, PAN 5 μg/ml 3-day treatment
[12] = compound 100 μM, PAN 5 μg/ml 5-day treatment

Structure (SMILES)	viability at 3 days, 5 μg/ml ([1]; 5 μg/ml PAN for 3 days)	viability at 5 days, 5 μg/ml ([1]; 5 μg/ml PAN for 5 days)	CIHP-1 proliferation by CTG, percentage compared to DMSO control (without PAN) [2, 3]	CIHP-1 proliferation by CTG, percentage compared to DMSO control (without PAN) [2, 4]	CIHP-1 proliferation by CTG, percentage compared to DMSO control (without PAN) [2, 5]	CIHP-1 proliferation by CTG, percentage compared to DMSO control (without PAN) [2, 6]	CIHP-1 proliferation by CTG, percentage compared to DMSO control (without PAN) [2, 7]	CIHP-1 proliferation by CTG, percentage compared to DMSO control (without PAN) [2, 8]	protection to PAN-injured podocytes ([2]; 0.01 to 100 μM, 3 days of PAN exposure)	improvement of podocyte viability ([2]; 0.01 to 100 μM, after 5 days of PAN injury)	CIHP-1 proliferation by CTG, percentage compared to DMSO control (without PAN) [2, 9]	CIHP-1 proliferation by CTG, percentage compared to DMSO control (without PAN) [2, 10]	CIHP-1 proliferation by CTG, percentage compared to DMSO control (without PAN) [2, 11]	CIHP-1 proliferation by CTG, percentage compared to DMSO control (without PAN) [2, 12]	concentration at which toxicity to the podocyte cells was observed ([2]; human, 3 days)
CN(C)c1ncnc2c1ncn2[C@@H]1O[C@H](CO)[C@@H](N)[C@H]1O [PAN, puromycin aminonucleoside]	70 to 80%	30 to 40%	–	–	–	–	–	–	–	–	–	–	–	–	–
C[C@@H]1C[C@H]2[C@@H]3CCC4=CC(=O)C=C[C@]4(C)[C@@]3(F)[C@@H](O)C[C@]2(C)[C@@]1(O)C(=O)CO [dexamethasone]	–	–	79.9%	34.2%	73.9%	34.9%	74.7%	33.6%	–	–	–	–	–	–	–
COc1ccc(Oc2cc(N(C)CCOc3ccc(CC4SC(=O)NC4=O)cc3)ncn2)cc1 (centres unmarked) [lobeglitazone, 5-(4-(2-((6-(4-Methoxyphenoxy)pyrimidin-4-yl)(methyl)amino)ethoxy)benzyl) thiazolidine-2,4-dione]	–	–	99.9%	33.0%	103.3%	32.8%	105%	33.7%	significant protection	did not show significant improvement	102.7%	31.0%	19.9%	6.2%	100 µM
CCc1ccc(CCOc2ccc(CC3SC(=O)NC3=O)cc2)nc1 (centres unmarked) [pioglitazone]	–	–	101.3%	38.3%	97.3%	30.0%	94.3%	33.4%	–	–	102.4%	35.2%	90.9%	22.4%	–
CN(CCOc1ccc(CC2SC(=O)NC2=O)cc1)c1ccccn1 (centres unmarked) [rosiglitazone]	–	–	76.0%	32.7%	74.5%	33.6%	69.2%	29.1%	–	–	72.4%	32.6%	69.6%	15.0%	–

— US20240180908A1, “TREATMENT OF KIDNEY DISEASES” (ACLIPSE ONE, INC., priority 2021, published 2024)
